Data set [1] is described as follows: Stability in rat brain homogenate assessed as compound remaining measured after 90 mins relative to control. It counts as ADME, tissue-based. The note with it: read-out: Stability.
The target in data set [2] is T1, Delta-type opioid receptor (Homo sapiens, UniProt P41143). Briefly: Displacement of [3H]DPDPE from DOP (unknown origin) stably expressed in HEK293 cells by liquid scintillation counter analysis. It counts as cell-based. In general terms: Loss of bound radioactivity is the signal in a displacement assay; it reports binding, not function.
T1 sequence (P41143 whole entry): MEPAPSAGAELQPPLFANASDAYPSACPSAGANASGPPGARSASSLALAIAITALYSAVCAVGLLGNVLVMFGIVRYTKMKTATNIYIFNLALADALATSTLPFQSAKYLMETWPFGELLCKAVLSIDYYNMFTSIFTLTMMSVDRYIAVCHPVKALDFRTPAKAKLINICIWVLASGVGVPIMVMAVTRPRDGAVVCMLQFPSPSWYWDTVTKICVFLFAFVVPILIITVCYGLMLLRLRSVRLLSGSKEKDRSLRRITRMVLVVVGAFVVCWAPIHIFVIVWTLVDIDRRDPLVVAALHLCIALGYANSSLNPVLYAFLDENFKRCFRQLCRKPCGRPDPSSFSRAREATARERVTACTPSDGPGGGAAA
Data set [3] addresses T2, Mu-type opioid receptor (Homo sapiens, UniProt P35372). Briefly: Agonist activity at MOP (unknown origin) stably expressed in HEK293 cells assessed as forskolin stimulated cAMP accumulation incubated for 30 mins by radioactivity based scintillation counter analysis relative to control. It counts as functional, cell-based. The note with it: filed as agonist. For orientation: Cyclic AMP is a second messenger, typically raised through Gs and lowered through Gi signalling.

The target of data set [4] is T2, Mu-type opioid receptor. The experiment in a line: Agonist activity at MOP (unknown origin) stably expressed in HEK293 cells assessed as forskolin stimulated cAMP accumulation incubated for 30 mins by radioactivity based scintillation counter analysis. It counts as functional, cell-based.
Data set [5] deals with T2, Mu-type opioid receptor. The experiment in a line: Displacement of [3H]DAMGO from MOP (unknown origin) stably expressed in HEK293 cells by liquid scintillation counter analysis. It counts as cell-based.
Data set [6] concerns the target T2, Mu-type opioid receptor. Briefly: Binding affinity to MOP (unknown origin).
Data set [7] concerns the target T1, Delta-type opioid receptor. Briefly: Binding affinity to DOP (unknown origin).

The Ki is a dissociation constant, usually derived from enzyme kinetics or from competition with a known ligand. A higher Ki goes with a looser hold on the target. Usually Emax stands for the maximal effect, on the per cent scale that the assay sets. Usually EC50 stands for the concentration giving half of the maximal effect.

Bridge positions count the residues as written; N and C are the ends. Square brackets hold non-standard residues; d marks the D form. Peptide text beside a SMILES is read from it.

T2 sequence (P35372 whole entry): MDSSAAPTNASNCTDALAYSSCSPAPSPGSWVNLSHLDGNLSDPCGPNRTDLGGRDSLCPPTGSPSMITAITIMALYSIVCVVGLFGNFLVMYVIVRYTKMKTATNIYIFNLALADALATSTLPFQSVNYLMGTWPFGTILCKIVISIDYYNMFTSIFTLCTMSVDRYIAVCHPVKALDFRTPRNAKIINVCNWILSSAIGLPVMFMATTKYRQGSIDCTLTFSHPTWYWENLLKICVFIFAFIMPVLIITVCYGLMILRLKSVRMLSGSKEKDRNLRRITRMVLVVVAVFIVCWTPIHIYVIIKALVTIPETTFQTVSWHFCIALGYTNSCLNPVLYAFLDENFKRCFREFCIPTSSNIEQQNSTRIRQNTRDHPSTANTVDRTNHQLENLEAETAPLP

For `Cc1cc(O)cc(C)c1C[C@H](N)C(=O)N[C@@H]1CCCCNC(=O)C[C@@H](C(N)=O)NC(=O)[C@H](c2ccccc2)NC(=O)[C@H](c2ccc(F)cc2)NC1=O`, in data set [1], the remaining at […] amounted to 93%.

Regarding `NC(=O)[C@@H]1CC(=O)NCCCC[C@@H](NC(=O)[C@@H](N)Cc2ccc(O)cc2)C(=O)N[C@@H](c2ccc(F)cc2)C(=O)N[C@@H](c2ccccc2)C(=O)N1`, the remaining at […] in data set [1] turned out to be 93%.

For the molecule `NC(=O)[C@@H]1CC(=O)NCCCC[C@@H](NC(=O)[C@@H](N)Cc2ccc(O)cc2)C(=O)N[C@@H](c2ccccc2)C(=O)N[C@@H](c2ccc(F)cc2)C(=O)N1`, in data set [1], the remaining at […] came out at 93%. With `C=C(C(N)=O)[C@@H](NC(=O)[C@H](Cc1c[nH]c2ccccc12)NC(=O)[C@@H](C)N(C)C(=O)[C@@H](N)Cc1ccc(O)cc1)c1ccco1`, the Ki was found to be 3100 nM in data set [2] and 0.3 nM on Mu-type opioid receptor [5]. The Emax on Mu-type opioid receptor [3] was determined as 90.6%. In addition, the concentration for a half-maximal effect (EC50) at Mu-type opioid receptor [4] amounted to 1.45 nM. Consider `Cc1cc(O)cc(C)c1C[C@H](N)C(=O)N[C@@H]1CCCCNC(=O)C[C@@H](C(N)=O)NC(=O)[C@H](c2ccc(F)cc2F)NC(=O)[C@H](c2ccccc2)NC1=O`, for which the remaining at […] in data set [1] was determined as 93%. Take `C=C(C(N)=O)[C@@H](NC(=O)[C@H](Cc1ccccc1)NC(=O)[C@@H](C)N(C)C(=O)[C@@H](N)Cc1ccc(O)cc1)c1ccco1`: the inhibition constant (Ki) was found to be 4510 nM in data set [2] and 0.45 nM at Mu-type opioid receptor [5]. Further, the Emax on Mu-type opioid receptor [3] is 87.7%. Further, the EC50 at Mu-type opioid receptor [4] came out at 4.11 nM. As for `NC(=O)[C@@H]1CC(=O)NCCCC[C@@H](NC(=O)[C@@H](N)Cc2ccc(O)cc2)C(=O)N[C@@H](c2ccc(C(F)(F)F)cc2)C(=O)N[C@@H](c2ccccc2)C(=O)N1`, in data set [1], the remaining at […] stood at 93%. As to `NC(=O)[C@@H]1CC(=O)NCCCC[C@@H](NC(=O)[C@@H](N)Cc2ccc(O)cc2)C(=O)N[C@@H](c2ccccc2)C(=O)N[C@@H](c2ccc(C(F)(F)F)cc2)C(=O)N1`, the remaining at […] in data set [1] is 93%. On the same count and under the same terms, the same measure for `Cc1cc(O)cc(C)c1C[C@H](N)C(=O)N[C@@H]1CCCCNC(=O)C[C@@H](C(N)=O)NC(=O)[C@H](c2ccccc2)NC(=O)[C@H](c2ccc(C(F)(F)F)cc2)NC1=O`: 93%; for `Cc1cc(O)cc(C)c1C[C@H](N)C(=O)N[C@@H]1CCCCNC(=O)C[C@@H](C(N)=O)NC(=O)[C@H](c2ccc(F)cc2)NC(=O)[C@H](c2ccccc2)NC1=O`: 93%. With `C=C(C(N)=O)[C@@H](NC(=O)[C@H](Cc1ccccc1)NC(=O)[C@@H](C)N(C)C(=O)[C@@H](N)Cc1ccc(O)cc1)c1ccccc1`, the Ki amounted to 4280 nM in data set [2] and 0.61 nM on Mu-type opioid receptor [5]. Further, on Mu-type opioid receptor [3], the maximum response (Emax) stood at 80.4%. Also, on Mu-type opioid receptor [4], the EC50 turned out to be 4.39 nM. Turning to `C=C(C(N)=O)[C@@H](NC(=O)[C@H](Cc1c[nH]c2ccccc12)NC(=O)[C@@H](C)N(C)C(=O)[C@@H](N)Cc1ccc(O)cc1)c1ccccc1`, the Ki in data set [2] turned out to be 3990 nM; at Mu-type opioid receptor [5] it was 0.58 nM. Moreover, the Emax on Mu-type opioid receptor [3] turned out to be 88.3%. The EC50 at Mu-type opioid receptor [4] stood at 2.27 nM.

Take `NC(=O)[C@@H]1CC(=O)NCCCC[C@@H](NC(=O)[C@@H](N)Cc2ccc(O)cc2)C(=O)N[C@@H](c2ccccc2)C(=O)N[C@@H](c2ccc(F)cc2F)C(=O)N1`: the remaining at […] in data set [1] was found to be 93%.

On to `Cc1cc(O)cc(C)c1C[C@H](N)C(=O)N[C@@H]1CCCCNC(=O)C[C@@H](C(N)=O)NC(=O)[C@H](c2ccc(C(F)(F)F)cc2)NC(=O)[C@H](c2ccccc2)NC1=O`, for which, in data set [1], the remaining at […] was determined as 93%.

`NC(=O)[C@@H]1CC(=O)NCCCC[C@@H](NC(=O)[C@@H](N)Cc2ccc(O)cc2)C(=O)N[C@@H](c2ccc(F)cc2F)C(=O)N[C@@H](c2ccccc2)C(=O)N1`: the remaining at […] in data set [1] came out at 93%.

As for `N[C@@H](Cc1ccc(O)cc1)C(=O)N[C@@H]1CCCCNC(=O)[C@H](Cc2ccccc2)NC(=O)[C@H](Cc2c[nH]c3ccccc23)NC1=O` (H-Y[dK]WF; lactam 2-C), the Ki on Mu-type opioid receptor [6] turned out to be 0.25 nM; in data set [7], 38 nM. In the case of `Cc1cc(O)cc(C)c1C[C@H](N)C(=O)N[C@@H]1CCCCNC(=O)C[C@@H](C(N)=O)NC(=O)[C@H](c2ccccc2)NC(=O)[C@H](c2ccc(F)cc2F)NC1=O`, the remaining at […] in data set [1] is 93%.
